Laboratory results published in article PMC3543149 (Diabetologia, 2012).

Biological target: T1, PKC-ι (Homo sapiens, UniProt P41743)
T1 sequence (P41743 2-596): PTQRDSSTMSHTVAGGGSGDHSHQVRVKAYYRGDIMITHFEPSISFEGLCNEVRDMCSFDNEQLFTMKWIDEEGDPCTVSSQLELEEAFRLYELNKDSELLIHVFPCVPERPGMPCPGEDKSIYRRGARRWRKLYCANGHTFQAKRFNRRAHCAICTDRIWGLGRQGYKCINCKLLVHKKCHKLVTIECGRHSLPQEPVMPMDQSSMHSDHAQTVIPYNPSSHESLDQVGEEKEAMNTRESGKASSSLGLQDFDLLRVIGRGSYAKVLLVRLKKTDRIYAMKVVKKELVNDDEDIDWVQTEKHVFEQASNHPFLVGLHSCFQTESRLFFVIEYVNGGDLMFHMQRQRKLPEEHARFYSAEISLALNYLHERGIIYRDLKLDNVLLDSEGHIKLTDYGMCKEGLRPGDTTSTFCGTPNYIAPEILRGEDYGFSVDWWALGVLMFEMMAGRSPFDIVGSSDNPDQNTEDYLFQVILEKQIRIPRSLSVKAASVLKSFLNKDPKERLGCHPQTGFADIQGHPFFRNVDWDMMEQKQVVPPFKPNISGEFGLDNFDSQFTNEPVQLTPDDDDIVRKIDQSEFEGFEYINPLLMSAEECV
Test: […]-ATP kinase assay of recombinant PKC-ι activated by PIP3, dose response
Type: biochemical

IC50: 10 to 100 nM
Compound: NC(=O)c1ncn([C@@H]2C[C@H](COP(=O)(O)O)[C@@H](O)[C@H]2O)c1N [ICAPP]
